28 compounds from paper PMC9421653 (Journal of Medicinal Chemistry, 2022) can be followed below.

The target of the experiment is T1, human GPR84 (Homo sapiens, UniProt P04899+Q9NQS5).
T1 construct: expressed in transfected cells; host or cells: Flp-In T-REx 293 cells, doxycycline-induced; membrane preparations
The experiment is described as follows: biochemical. In kind it is biochemical. Particulars: [35S]GTPγS assay; negative log of the IC50 in molar; mean ± SEM. (GTPγS is a poorly hydrolysed GTP analogue; its binding reports G protein activation.)

T1 sequence (Q9NQS5+P04899 fused): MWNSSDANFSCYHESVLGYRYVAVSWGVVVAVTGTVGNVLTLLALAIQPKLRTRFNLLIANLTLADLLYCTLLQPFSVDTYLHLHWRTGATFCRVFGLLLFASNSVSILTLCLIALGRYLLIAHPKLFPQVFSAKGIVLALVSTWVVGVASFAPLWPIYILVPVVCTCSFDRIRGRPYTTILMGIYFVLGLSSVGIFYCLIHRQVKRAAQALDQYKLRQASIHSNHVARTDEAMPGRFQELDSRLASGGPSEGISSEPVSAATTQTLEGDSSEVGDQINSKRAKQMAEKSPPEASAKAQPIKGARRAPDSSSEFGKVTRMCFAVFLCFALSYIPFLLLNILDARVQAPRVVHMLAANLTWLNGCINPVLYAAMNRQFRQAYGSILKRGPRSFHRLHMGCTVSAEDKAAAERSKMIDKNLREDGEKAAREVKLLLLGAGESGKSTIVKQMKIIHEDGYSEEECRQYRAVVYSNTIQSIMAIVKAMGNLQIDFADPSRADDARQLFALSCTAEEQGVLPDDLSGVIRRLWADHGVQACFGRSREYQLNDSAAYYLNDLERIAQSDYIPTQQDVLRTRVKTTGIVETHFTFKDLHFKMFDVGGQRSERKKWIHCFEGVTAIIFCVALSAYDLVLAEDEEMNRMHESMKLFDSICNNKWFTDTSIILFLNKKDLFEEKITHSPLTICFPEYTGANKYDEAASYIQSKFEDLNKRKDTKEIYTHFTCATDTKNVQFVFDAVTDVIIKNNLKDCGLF

For the compound `c1ccc(-c2nnc(Cc3c[nH]c4ccccc34)nc2-c2ccccn2)nc1` [Compound 8, 3-((5,6-Di(pyridin-2-yl)-1,2,4-triazin-3-yl)methyl)-1H-indole], the “GTPγS (pIC50)” value is given as 5.70 ± 0.21.

In the case of `Fc1ccc(-c2nnc(Cc3c[nH]c4ccccc34)nc2-c2ccc(F)cc2)cc1` [Compound 5, 3-((5,6-Bis(4-fluorophenyl)-1,2,4-triazin-3-yl)methyl)-1H-indole], the “GTPγS (pIC50)” value stood at 7.81 ± 0.04.

Take `c1ccc(-c2nnc(Cc3c[nH]c4cnccc34)nc2-c2ccnnc2)cc1` [Compound 61, 3-((6-Phenyl-5-(pyridazin-4-yl)-1,2,4-triazin-3-yl)methyl)-1H-pyrrolo[2,3-c]pyridine]: the “GTPγS (pIC50)” value was determined as 5.84 ± 0.10.

Regarding `Fc1ccc2c(Cc3nnc(-c4ccccc4)c(-c4ccccc4)n3)c[nH]c2c1` [Compound 15, 3-((5,6-Diphenyl-1,2,4-triazin-3-yl)methyl)-6-fluoro-1H-indole], the “GTPγS (pIC50)” value amounted to 6.65 ± 0.03.

As for `CNC(=O)c1ccc(-c2nnc(Cc3c[nH]c4ccccc34)nc2-c2ccccc2)cc1` [Compound 73, 4-(3-((1H-Indol-3-yl)methyl)-5-phenyl-1,2,4-triazin-6-yl)-N-methylbenzamide], the “GTPγS (pIC50)” value worked out at 7.18 ± 0.09.

On to `OCc1ccc(-c2nnc(Cc3c[nH]c4ccccc34)nc2-c2ccccc2)cc1` [Compound 40, (4-(3-((1H-Indol-3-yl)methyl)-5-phenyl-1,2,4-triazin-6-yl)phenyl)methanol], for which the “GTPγS (pIC50)” value is on record as 7.76 ± 0.06.

For `CC(C)c1nnc(Cc2c[nH]c3ccccc23)nc1C(C)C` [Compound 9, 3-((5,6-Diisopropyl-1,2,4-triazin-3-yl)methyl)-1H-indole], the “GTPγS (pIC50)” value is listed as 5.38 ± 0.05.

Consider `COC(=O)c1ccc(-c2nc(Cc3c[nH]c4ccccc34)nnc2-c2ccccc2)cc1` [Compound 49, Methyl 4-(3-((1H-Indol-3-yl)methyl)-6-phenyl-1,2,4-triazin-5-yl)benzoate], for which the “GTPγS (pIC50)” value was determined as 6.74 ± 0.05.

In the case of `Brc1ccc(-c2nnc(Cc3c[nH]c4ccccc34)nc2-c2ccc(Br)cc2)cc1` [Compound 7, 3-((5,6-Bis(4-bromophenyl)-1,2,4-triazin-3-yl)methyl)-1H-indole], the “GTPγS (pIC50)” value came out at 7.60 ± 0.02.

`NC(=O)CNC(=O)c1ccc(-c2nnc(Cc3c[nH]c4ccccc34)nc2-c2ccccc2)cc1` [Compound 81, 4-(3-((1H-Indol-3-yl)methyl)-5-phenyl-1,2,4-triazin-6-yl)-N-(2-amino-2-oxoethyl)benzamide]: the “GTPγS (pIC50)” value came out at 5.80 ± 0.11.

Regarding `O=C(O)c1ccc(-c2nnc(Cc3c[nH]c4ccccc34)nc2-c2ccccc2)cc1` [Compound 52, 4-(3-((1H-Indol-3-yl)methyl)-5-phenyl-1,2,4-triazin-6-yl)benzoic Acid], the “GTPγS (pIC50)” value was determined as 7.06 ± 0.22.

As to `CNC(=O)c1ccc(-c2nc(Cc3c[nH]c4cnccc34)nnc2-c2ccccc2)cc1` [Compound 67, 4-(3-((1H-Pyrrolo[2,3-c]pyridin-3-yl)methyl)-6-phenyl-1,2,4-triazin-5-yl)-N-methylbenzamide], the “GTPγS (pIC50)” value was 6.48 ± 0.04.

Take `CN(C)Cc1ccc(-c2nnc(Cc3c[nH]c4ccccc34)nc2-c2ccccc2)cc1` [Compound 44, 1-(4-(3-((1H-Indol-3-yl)methyl)-5-phenyl-1,2,4-triazin-6-yl)phenyl)-N,N-dimethylmethanamine]: the “GTPγS (pIC50)” value is on record as 6.68 ± 0.05.

As to `c1ccc(-c2nnc(CCc3cccnc3)nc2-c2ccccc2)cc1` [Compound 22, 5,6-Diphenyl-3-(2-(pyridin-3-yl)ethyl)-1,2,4-triazine], the “GTPγS (pIC50)” value is 5.00 ± 0.17.

Regarding `c1ccc(-c2nc(Cc3c[nH]c4cnccc34)nnc2-c2cnccn2)cc1` [Compound 60, 3-((5-Phenyl-6-(pyrazin-2-yl)-1,2,4-triazin-3-yl)methyl)-1H-pyrrolo[2,3-c]pyridine], the “GTPγS (pIC50)” value is 5.91± 0.06.

On to `Cc1cc(Nc2nnc(-c3ccccc3)c(-c3ccccc3)n2)n[nH]1` [Compound 25, N-(5-Methyl-1H-pyrazol-3-yl)-5,6-diphenyl-1,2,4-triazin-3-amine], for which the “GTPγS (pIC50)” value was under 4.70.

Regarding `FC(F)(F)Oc1ccccc1-c1cnnc(Cc2c[nH]c3ccccc23)n1` [Compound 26, 3-((5-(2-(Trifluoromethoxy)phenyl)-1,2,4-triazin-3-yl)methyl)-1H-indole], the “GTPγS (pIC50)” value is recorded as under 4.70.

`c1ccc(-c2nnc(NCc3cccnc3)nc2-c2ccccc2)cc1` [Compound 24, 5,6-Diphenyl-N-(pyridin-3-ylmethyl)-1,2,4-triazin-3-amine]: the “GTPγS (pIC50)” value came out at 5.47 ± 0.05.

For the compound `CNS(=O)(=O)c1ccc(-c2nc(Cc3c[nH]c4ccccc34)nnc2-c2ccccc2)cc1` [Compound 33, 4-(3-((1H-Indol-3-yl)methyl)-6-phenyl-1,2,4-triazin-5-yl)-N-methylbenzenesulfonamide], the “GTPγS (pIC50)” value is 6.49 ± 0.05.

On to “Methyl 3-(3-((1H-Indol-3-yl)methyl)-6-phenyl-1,2,4-triazin-5-yl)benzoate [Compound 54]”, for which the “GTPγS (pIC50)” value was 6.94 ± 0.03.

Consider `Cc1ccc2c(Cc3nnc(-c4ccccc4)c(-c4ccccc4)n3)c[nH]c2c1` [Compound 16, 3-((5,6-Diphenyl-1,2,4-triazin-3-yl)methyl)-6-methyl-1H-indole], for which the “GTPγS (pIC50)” value is on record as under 4.70.

Consider `COc1ccc(-c2nnc(Cc3n[nH]c4ccccc34)nc2-c2ccc(OC)cc2)cc1` [Compound 14, 3-((5,6-Bis(4-methoxyphenyl)-1,2,4-triazin-3-yl)methyl)-1H-indazole], for which the “GTPγS (pIC50)” value is given as 6.67 ± 0.03.

For “3-((5-Phenyl-6-(pyrimidin-2-yl)-1,2,4-triazin-3-yl)methyl)-1H-indole or 3-((6-phenyl-5-(pyrimidin-2-yl)-1,2,4-triazin-3-yl)methyl)-1H-indole [Compound 32]”, the “GTPγS (pIC50)” value came out at 6.58 ± 0.08.

With `CS(=O)(=O)NCc1ccc(-c2nc(Cc3c[nH]c4ccccc34)nnc2-c2ccccc2)cc1` [Compound 47, N-(4-(3-((1H-indol-3-yl)methyl)-6-phenyl-1,2,4-triazin-5-yl)benzyl)methanesulfonamide], the “GTPγS (pIC50)” value is on record as 6.72 ± 0.06.

Regarding `O=C(NCCO)c1ccc(-c2nc(Cc3c[nH]c4cnccc34)nnc2-c2ccccc2)cc1` [Compound 69, 4-(3-((1H-Pyrrolo[2,3-c]pyridin-3-yl)methyl)-6-phenyl-1,2,4-triazin-5-yl)-N-(2-hydroxyethyl)benzamide], the “GTPγS (pIC50)” value worked out at 6.84 ±0.05.

Regarding `COc1ccc(-c2nnc(Cc3c[nH]c4ccc(F)cc34)nc2-c2ccc(OC)cc2)cc1` [Compound 12, 3-((5,6-Bis(4-methoxyphenyl)-1,2,4-triazin-3-yl)methyl)-5-fluoro-1H-indole], the “GTPγS (pIC50)” value came to 6.92 ± 0.07.

With `c1ccc(-c2nnc(Cc3cnc4ccccn34)nc2-c2ccccc2)cc1` [Compound 20, 3-((5,6-Diphenyl-1,2,4-triazin-3-yl)methyl)imidazo[1,2-a]pyridine], the “GTPγS (pIC50)” value is on record as 5.44 ± 0.09.

Take `COC(=O)c1ccc(-c2nnc(Cc3c[nH]c4ccccc34)nc2-c2ccc(C(=O)OC)cc2)cc1` [Compound 10, Methyl 4-[3-(1H-Indol-3-ylmethyl)-6-(4-methoxycarbonylphenyl)-1,2,4-triazin-5-yl]benzoate]: the “GTPγS (pIC50)” value is listed as 6.67 ± 0.08.
